Measured values as given in patent US20260209247A1, “Substituted Tricyclic Compounds” (Lupin Limited, priority 2019, published 2026).

Tested on: pERK after EGF stimulation in DLD1 cells
Assay: ERK phosphorylation assay (alphascreen pERK)
Type: cell-based
Conditions: Homo sapiens, DLD-1, 2 h compound, 200 ng/ml hEGF for 5 minutes, read-out: ERK phosphorylation inhibition IC50
Method: Compounds were tested for their ability to inhibit pERK after EGF stimulation in DLD1 cells. Cells were seeded at 0.2 million cells per well in 96 well cell binding tissue culture plate in 100 μL complete media and were allowed to settle overnight (16 to 20 h). On the following day, cells were treated with various concentrations of test compounds for 2 h followed by stimulation with 200 ng/ml hEGF (diluted in PBS) for 5 minutes. Cells were then washed once with PBS and lysed in freshly prepared lysis buffer (provided with alphascreen surefire ERK1/2 p-T202/Y204 assay kit, cat no: TGRESB10K, Perkin Elmer). Lysis was carried out in plate shaker for 10-15 mins. Lysate was transferred to […] white opti-plate (Perkin Elmer) and alphascreen for pERK was carried out as per manufacturer's instructions. Plate was read after 2 h incubation in plate shaker at […] 300 RPM, 25-28° C. The difference between the unstimulated and stimulated Vehicle control is considered as 100% ERK phosphorylation, and % inhibition of compounds is calculated accordingly.

Q: `Cc1nc(NC(C)c2cccc(C(O)(CO)C(F)(F)F)c2F)c2cc3c(cc2n1)OC(C)(C)C(=O)N3C` (racemic) [Compound 22, 4-(((R&S)-1-(2-Fluoro-3-((R&S)-1,1,1-trifluoro-2,3-dihydroxypropan-2-yl)phenyl)ethyl)amino)-2,6,8,8-tetramethyl-6H-[1,4]oxazino[3,2-g]quinazolin-7(8H)-one] was tested. Which IC50 did it give?
A: Its IC50 is 0.201 to 0.5 µM.

Q: With `CO[C@]1(C)C(=O)N(C)c2cc3c(N[C@H](C)c4cccc(C(F)(F)[C@](C)(O)CO)c4F)nc(C)nc3cc21` (racemic) [Compound 103, (S/R)-4-(((R/S)-1-(3-((R/S)-1,1-difluoro-2,3-dihydroxy-2-methylpropyl)-2-fluorophenyl)ethyl)amino)-8-methoxy-2,6,8-trimethyl-6,8-dihydro-7H-pyrrolo[2,3-g]quinazolin-7-one] as the compound, how does the IC50 read?
A: Its IC50 is 0.201 to 0.5 µM.

Q: For `Cc1nc(N[C@H](C)c2cccc(C(F)(F)[C@@](C)(O)CN(C)C)c2F)c2cc3c(cc2n1)C(C)(C)C(=O)N3C` (racemic) [Compound 129b, 4-(((R)-1-(3-((S/R)-3-(dimethylamino)-1,1-difluoro-2-hydroxy-2-methylpropyl)-2-fluorophenyl)ethyl)amino)-2,6,8,8-tetramethyl-6,8-dihydro-7H-pyrrolo[2,3-g]quinazolin-7-one], which IC50 is on record?
A: The IC50 was 0.001 to 0.2 µM.

Q: With `CNC[C@](C)(O)C(F)(F)c1cccc([C@@H](C)Nc2nc(C)nc3cc4c(cc23)N(C)C(=O)C4(C)C)c1F` (racemic) [Compound 130b, 4-(((R)-1-(3-((S/R)-1,1-difluoro-2-hydroxy-2-methyl-3-(methylamino)propyl)-2-fluorophenyl)ethyl)amino)-2,6,8,8-tetramethyl-6,8-dihydro-7H-pyrrolo[2,3-g]quinazolin-7-one] as the compound, how does the IC50 read?
A: Its IC50 is 0.001 to 0.2 µM.

Q: With `Cc1nc(N[C@H](C)c2cccc(C3CCCNC3)c2F)c2cc3c(cc2n1)C(C)(C)C(=O)N3C` (mixture of isomers) [Compound 133, (R & S)-4-(((R)-1-(2-fluoro-3-((R & S)-piperidin-3-yl)phenyl)ethyl)amino)-2,6,8,8-tetramethyl-6,8-dihydro-7H-pyrrolo[2,3-g]quinazolin-7-one] as the compound, how does the IC50 read?
A: The IC50 was 0.201 to 0.5 µM.

Q: With `COC1(C)C(=O)N(C)c2cc3nc(C)nc(N[C@H](C)c4cc(N)cc(C(F)(F)F)c4)c3cc21` (mixture of isomers) [Compound 137, 4—(((R)-1-(3-amino-5-(trifluoromethyl)phenyl)ethyl)amino)-6-methoxy-2,6,8-trimethyl-6,8-dihydro-7H-pyrrolo[3,2-g]quinazolin-7-one] as the compound, how does the IC50 read?
A: Its IC50 is 0.001 to 0.2 µM.

Q: How did the IC50 turn out when `Cc1nc(NC(C)c2cc(N)cc(C(F)F)c2)c2cc3c(cc2n1)OCC(=O)N3C` (single isomer, unassigned) [Compound 5, (R/S)-4-((1-(3-Amino-5-(difluoromethyl)phenyl)ethyl)amino)-2,6-dimethyl-6H-[1,4]oxazino[3,2-g]quinazolin-7(8H)-one] was run?
A: Its IC50 is 0.001 to 0.2 µM.

Q: Which IC50 does the source give for `Cc1nc(N[C@H](C)c2cccc([C@@](O)(CO)C(F)(F)F)c2F)c2cc3c(cc2n1)OC(C)(C)C(=O)N3C` (single isomer, unassigned) [Compound 22b, 4-(((R/S)-1-(2-fluoro-3-((R/S)-1,1,1-trifluoro-2,3-dihydroxypropan-2-yl)phenyl)ethyl)amino)-2,6,8,8-tetramethyl-6H-[1,4]oxazino[3,2-g]quinazolin-7(8H)-one] here?
A: Its IC50 is 0.201 to 0.5 µM.

Q: `Cc1nc(N[C@H](C)c2cccc(C(F)(F)C(C)(C)O)c2F)c2cc3c(cc2n1)O[C@@H](C(C)C)C(=O)N3C` (single isomer, unassigned) [Compound 32a] was tested. Which IC50 did it give?
A: Its IC50 is 0.001 to 0.2 µM.

Q: With `Cc1nc(N[C@H](C)c2cc(N)cc(C(F)(F)F)c2)c2cc3c(cc2n1)OCCN3CC1CCOC1` (single isomer, unassigned) [Compound 43] as the compound, how does the IC50 read?
A: The IC50 was 0.001 to 0.2 µM.

Q: How did the IC50 turn out when `Cc1nc(NC(C)c2cc(N)cc(C(F)F)c2)c2cc3c(cc2n1)C(C)(C)C(=O)N3C` (single isomer, unassigned) [Compound 69, (R/S)-4-((1-(3-amino-5-(difluoromethyl)phenyl)ethyl)amino)-2,6,8,8-tetramethyl-6H-pyrrolo[2,3-g]quinazolin-7(8H)-one] was run?
A: Its IC50 is 0.001 to 0.2 µM.

Q: Which IC50 does the source give for `Cc1nc(N[C@H](C)c2cccc(C(F)(F)[C@](C)(O)CO)c2F)c2cc3c(cc2n1)C(C)(C)C(=O)N3C` (single isomer, unassigned) [Compound 76b] here?
A: The IC50 was 0.201 to 0.5 µM.

Q: `COC1(C)C(=O)N(C)c2cc3nc(C)nc(N[C@H](C)c4cccc(C(F)(F)C(C)(C)O)c4F)c3cc21` (single isomer, unassigned) [Compound 96b] was tested. Which IC50 did it give?
A: The IC50 was 0.001 to 0.2 µM.

Q: `Cc1nc(N[C@H](C)c2cccc(C(F)(F)C(C)(C)O)c2F)c2cc3c(cc2n1)C(C)(F)C(=O)N3C` (single isomer, unassigned) [Compound 116a] was tested. Which IC50 did it give?
A: The IC50 was 0.201 to 0.5 µM.

Q: How did the IC50 turn out when `Cc1nc(N[C@H](C)c2cccc(C(F)(F)C(C)(C)O)c2F)c2cc3c(cc2n1)[C@](C)(F)C(=O)N3C` (single isomer, unassigned) [Compound 116b] was run?
A: The IC50 was 0.001 to 0.2 µM.

Q: With `COCCC1(C)C(=O)N(C)c2cc3c(N[C@H](C)c4cccc(C(F)(F)C(C)(C)O)c4F)nc(C)nc3cc21` (single isomer, unassigned) [Compound 123b] as the compound, how does the IC50 read?
A: The IC50 was 0.001 to 0.2 µM.

Q: `COC1(C(F)(F)F)C(=O)N(C)c2cc3c(N[C@H](C)c4cccc(C(F)(F)C(C)(C)O)c4F)nc(C)nc3cc21` (single isomer, unassigned) [Compound 125a] was tested. Which IC50 did it give?
A: The IC50 was 0.201 to 0.5 µM.

Q: How did the IC50 turn out when `CO[C@]1(C(F)(F)F)C(=O)N(C)c2cc3c(N[C@H](C)c4cccc(C(F)(F)C(C)(C)O)c4F)nc(C)nc3cc21` (single isomer, unassigned) [Compound 125b] was run?
A: Its IC50 is 0.001 to 0.2 µM.

Q: How did the IC50 turn out when `CCC1(OC)C(=O)N(C)c2cc3c(N[C@H](C)c4cccc(C(F)(F)C(C)(C)O)c4F)nc(C)nc3cc21` (single isomer, unassigned) [Compound 126a] was run?
A: Its IC50 is 0.001 to 0.2 µM.

Q: `CC[C@@]1(OC)C(=O)N(C)c2cc3c(N[C@H](C)c4cccc(C(F)(F)C(C)(C)O)c4F)nc(C)nc3cc21` (single isomer, unassigned) [Compound 126b] was tested. Which IC50 did it give?
A: Its IC50 is 0.201 to 0.5 µM.

Q: Which IC50 does the source give for `COCC(C)(O)C(F)(F)c1cccc([C@@H](C)Nc2nc(C)nc3cc4c(cc23)N(C)C(=O)C4(C)C)c1F` (single isomer, unassigned) [Compound 127a] here?
A: The IC50 was 0.201 to 0.5 µM.

Q: `COCCC1(OC)C(=O)N(C)c2cc3c(N[C@H](C)c4cccc(C(F)(F)C(C)(C)O)c4F)nc(C)nc3cc21` (single isomer, unassigned) [Compound 132a] was tested. Which IC50 did it give?
A: Its IC50 is 0.001 to 0.2 µM.

Q: With `Cc1nc(NC(C)c2cccc(C(F)(F)F)c2F)c2cc3c(cc2n1)C(C)(C)C(=O)N3C` (single isomer, unassigned) [Compound 134, (R/S)-4-((1-(2-fluoro-3-(trifluoromethyl)phenyl)ethyl)amino)-2,6,8,8-tetramethyl-6,8-dihydro-7H-pyrrolo[2,3-g]quinazolin-7-one] as the compound, how does the IC50 read?
A: Its IC50 is 0.201 to 0.5 µM.

Q: With `Cc1nc(N[C@H](C)c2cccc(C(F)(F)C(C)(C)O)c2F)c2cc3c(cc2n1)OCC(=O)N3C` [Compound 3, (R)-4-((1-(3-(1,1-difluoro-2-hydroxy-2-methylpropyl)-2-fluorophenyl)ethyl)amino)-2,6-dimethyl-6H-[1,4]oxazino[3,2-g]quinazolin-7(8H)-one] as the compound, how does the IC50 read?
A: Its IC50 is 0.201 to 0.5 µM.

Q: With `CCc1nc(N[C@H](C)c2cc(N)cc(C(F)(F)F)c2)c2cc3c(cc2n1)OCC(=O)N3C` [Compound 14, (R)-4-((1-(3-amino-5-(trifluoromethyl)phenyl)ethyl)amino)-2-ethyl-6-methyl-6H-[1,4]oxazino[3,2-g]quinazolin-7(8H)-one] as the compound, how does the IC50 read?
A: The IC50 was 0.001 to 0.2 µM.
